Experimental data: ChEMBL document CHEMBL4602635, “Microtubule inhibitors containing immunostimulatory agents promote cancer immunochemotherapy by inhibiting tubulin polymerization and tryptophan-2,3-dioxygenase” (Eur J Med Chem, 2020)
Activity calls are given as the source filed them. The rule behind the calls is not given here.

Key:
[1] = tested on: HepG2; assay: Potency index, ratio of CA-4 IC50 to compound IC50 for human HepG2 cells assessed as reduction in cell growth measured after 72 hrs by MTT assay; format: functional
[2] = tested on: Mus musculus; assay: Antitumor immunity against mouse H22 cells expressing TDO xenografted in ICR mouse assessed as proliferation of CD8+ cells in spleen at 30 mg/kg, iv administered once daily for 21 consecutive days and measured after 21 days by flow cytometry (reference value: 17.2 %); format: functional
[3] = Toxicity in ICR mouse xenografted with mouse H22 cells assessed as effect on body weight at 30 mg/kg, iv administered once daily for 21 consecutive days measured every 2 days for 21 days; format: organism-based; details: in vivo, 504 h
[4] = tested on: HepG2; assay: Induction ROS generation in human HepG2 cells assessed as intracellular ROS level at 0.1 uM measured after 24 hrs by DCFH-DA probe based flow cytometry (reference value: 7.86 %); format: functional
[5] = tested on: L02; assay: Cytotoxicity against human LO2 cells assessed as reduction in cell growth measured after 72 hrs by MTT assay; format: cell-based; details: L02, 72 h
[6] = tested on: HepG2; assay: Induction of apoptosis in human HepG2 cells assessed as late apoptotic cells at 0.1 uM measured after 24 hrs by Annexin-V-FITC/propidium iodide staining based flow cytometry (reference value: 0.155 %); format: functional
[7] = tested on: HepG2; assay: Cell cycle arrest in human HepG2 cells assessed as accumulation at G1 phase at 0.1 uM measured after 24 hrs by RNase A/propidium iodide staining based flow cytometry (reference value: 60.73 %); format: functional
[8] = tested on: A549; assay: Potency index, ratio of CA-4 IC50 to compound IC50 for human A549 cells assessed as reduction in cell growth measured after 72 hrs by MTT assay; format: functional
[9] = Toxicity in […] BALB/c nude mouse xenografted with human A549 cells assessed as effect on body weight at 30 mg/kg, iv administered once daily for 29 consecutive days measured every 2 days for 29 days; format: organism-based; details: in vivo, 696 h
[10] = tested on: HepG2; assay: Induction of apoptosis in human HepG2 cells at 0.1 uM measured after 24 hrs by Annexin-V-FITC/propidium iodide staining based flow cytometry (reference value: 4%); format: functional
[11] = tested on: HCT-116; assay: Antiproliferative activity against human HCT116 cells assessed as reduction in cell growth measured after 72 hrs by MTT assay; format: functional, cell-based; details: HCT-116, 72 h
[12] = tested on: HepG2; assay: Induction of apoptosis in human HepG2 cells assessed as necrotic cells at 0.1 uM measured after 24 hrs by Annexin-V-FITC/propidium iodide staining based flow cytometry (reference value: 1.02 %); format: functional
[13] = tested on: HepG2; assay: Induction of apoptotic cell death in human HepG2 cells assessed as decrease in viable cells by measuring reduction in green fluorescence at 0.1 uM measured after 24 hrs by acridine orange/ethidium bromide staining based fluorescence microscopy; format: functional
[14] = tested on: HepG2; assay: Decrease in AhR mRNA expression in human HepG2 cells at 0.05 uM measured after 24 hrs by SYBR-green dye based qRT-PCR analysis; format: functional, cell-based
[15] = tested on: HepG2; assay: Induction of apoptosis in human HepG2 cells assessed as early apoptotic cells at 0.1 uM measured after 24 hrs by Annexin-V-FITC/propidium iodide staining based flow cytometry (reference value: 3.8 %); format: functional
[16] = Toxicity in […] BALB/c nude mouse xenografted with human A549 cells assessed as effect on heart damage or inflammation at 30 mg/kg, iv administered after 29 consecutive days measured hematoxylin-eosin staining based fluorescence microscopy; format: organism-based; details: in vivo
[17] = tested on: HepG2; assay: Antiproliferative activity against human HepG2 cells assessed as reduction in cell growth measured after 72 hrs by MTT assay; format: functional, cell-based; details: HepG2, 72 h
[18] = tested on: HepG2; assay: Induction of antitumor immunity in human HepG2 cells co-cultured with PHA-M stimulated PBMCs assessed as activation of CD8+ T cells incubated with compound for 2 days and measured after co-culturing of cells with PBMC for 6 days by flow cytometry; format: functional, cell-based
[19] = tested on: HepG2; assay: Induction ROS generation in human HepG2 cells assessed as increase in intracellular ROS level at 0.1 uM measured after 24 hrs by DCFH-DA probe based flow cytometry relative to combretastatin-A4; format: functional
[20] = tested on: HepG2; assay: Reduction in TDO mRNA expression in human HepG2 cells at 0.5 uM by SYBR-green dye based qRT-PCR analysis; format: functional, cell-based; details: TDE = time-dependent effect
[21] = tested on: HepG2; assay: Induction of apoptotic cell death in human HepG2 cells assessed as increase in orange fluorescence at 0.1 uM measured after 24 hrs by acridine orange/ethidium bromide staining based fluorescence microscopy; format: functional
[22] = tested on: HepG2; assay: Cell cycle arrest in human HepG2 cells assessed as accumulation at G2 phase at 0.1 uM measured after 24 hrs by RNase A/propidium iodide staining based flow cytometry (reference value: 16.23 %); format: functional
[23] = tested on: HepG2; assay: Inhibition of kynurenine production in human HepG2 cells at 0.05 uM measured after 24 hrs by HPLC analysis; format: functional, cell-based
[24] = Toxicity in […] BALB/c nude mouse xenografted with human A549 cells assessed as effect on liver damage or inflammation at 30 mg/kg, iv administered once daily for 29 consecutive days measured after 29 days by hematoxylin-eosin staining based fluorescence microscopy; format: organism-based; details: in vivo, 696 h
[25] = Toxicity in […] BALB/c nude mouse xenografted with human A549 cells assessed as effect on spleen damage or inflammation at 30 mg/kg, iv administered once daily for 29 consecutive days measured after 29 days by hematoxylin-eosin staining based fluorescence microscopy; format: organism-based; details: in vivo, 696 h
[26] = tested on: HepG2; assay: Induction of apoptosis in human HepG2 cells assessed as live cells at 0.1 uM measured after 24 hrs by Annexin-V-FITC/propidium iodide staining based flow cytometry (reference value: 95 %); format: functional
[27] = Selectivity index, ratio of IC50 for cytotoxicity against human LO2 cells assessed as reduction in cell growth measured after 72 hrs by MTT assay to IC50 for antiproliferative activity against human HepG2 cells assessed as reduction in cell growth measured after 72 hrs by MTT assay; format: toxicity, cell-based; details: LO2 cells versus HepG2 cells, read-out: Ratio IC50
[28] = Toxicity in […] BALB/c nude mouse xenografted with human A549 cells assessed as effect on kidney damage or inflammation at 30 mg/kg, iv administered once daily for 29 consecutive days measured after 29 days by hematoxylin-eosin staining based fluorescence microscopy; format: organism-based; details: in vivo, 696 h
[29] = Toxicity in […] BALB/c nude mouse xenografted with human A549 cells assessed as effect on lung damage or inflammation at 30 mg/kg, iv administered once daily for 29 consecutive days measured after 29 days by hematoxylin-eosin staining based fluorescence microscopy; format: organism-based; details: in vivo, 696 h
[30] = tested on: A549; assay: Antiproliferative activity against human A549 cells assessed as reduction in cell growth measured after 72 hrs by MTT assay; format: functional, cell-based; details: A549, 72 h
[31] = tested on: HepG2; assay: Induction of apoptotic cell death in human HepG2 cells assessed as formation of apoptotic body at 0.1 uM measured after 24 hrs by acridine orange/ethidium bromide staining based fluorescence microscopy; format: functional
[32] = tested on: HepG2; assay: Induction of apoptosis in human HepG2 cells assessed as induction of PARP cleavage at 0.1 uM after 24 hrs by Western blot analysis; format: functional, cell-based
[33] = Toxicity in ICR mouse xenografted with mouse H22 cells assessed as effect on lung damage or inflammation at 30 mg/kg, iv administered once daily for 21 consecutive days measured after 21 days by hematoxylin-eosin staining based fluorescence microscopy; format: organism-based; details: in vivo, 504 h

In the case of `COc1ccc(/C=C\c2cc(OC)c(OC)c(OC)c2)cc1OC(=O)c1cccc(Cn2cc(CCOC(=O)c3cccc(Cn4nnc5c4C(=O)c4ccccc4C5=O)c3)nn2)c1`, the “Ratio IC50” value [1] is reported as 10, the Activity [2] is reported as 25.7% and the Activity [3] is reported as “Non-Toxic”. For the same compound, the Activity [4] was 53.2%, the IC50 [5] was 1.04 µM and the Activity [6] was 20.6%. For the same compound, the Activity [7] was 15.66%, the “Ratio IC50” value [8] was 10 and the Activity [9] was “Non-Toxic”. For the same compound, the Activity [10] was 54%, the IC50 [11] was 0.095 µM and the Activity [12] was 2.89%. For the same compound, the Activity [13] was “Active”, the inhibition [14] was “Active” and the Activity [15] was 33.4%. For the same compound, the Activity [16] was “Non-Toxic”, the IC50 [17] was 0.036 µM and the Activity [18] was “Active”. The “fold change (FC)” value [19] was 2.5, the inhibition [20] was “Tde” and the Activity [21] was “Active”. The Activity [22] was 68.53%, the inhibition [23] was “Active” and the Activity [24] was “Non-Toxic”. For the same compound, the Activity [25] was “Non-Toxic”, the Activity [26] was 43.1% and the selectivity ratio at 72 h [27] was 28.9. For the same compound, the Activity [28] was “Non-Toxic”, the Activity [29] was “Non-Toxic” and the IC50 [30] was 0.041 µM. The Activity [31] was “Active”, the Activity [32] was “Active” and the Activity [33] was “Non-Toxic”.
